Laboratory results taken from patent US20190119284A1, “ErbB Inhibitors and Uses Thereof” (The Regents of the University of California, priority 2016, published 2019).
Where two headings read alike, the source gives them in different places.

Assays:
[1] = target: PIM-1-KINASE (Homo sapiens, UniProt P11309); assay: Nanosyn in vitro kinase profiling: PIM-1-KINASE; type: biochemical; settings: for inhibition at 1 µM: compound at 1 μM
Description: (§1) This was confirmed by in vitro profiling against a panel of kinases, with compound 2 only showing potent inhibition of EGFR and Ab1 (Table 2).
(§2) In vitro Kinome Screen. In vitro profiling of compound 2 at 100 nM was conducted by Nanosyn.

[2] = tested on: HER2YF/HER3E928G (2YF/3EG) Ba/F3 cells; assay: Ba/F3 proliferation assay, 2YF/3EG +/- NRG; type: cell-based; settings: + NRG vs no NRG
Text: Consistent with the results in the HER2 overexpressing cell lines, CW-2 cells that harbor a HER3-activating mutation were equally sensitive to compound 3+/−NRG in both proliferation and signaling assays (FIGS. 6A-6B). […] To further evaluate the potential of compound 3 against HER2 mutants within a HER2/HER3 heterodimer we transduced wt HER3 containing Ba/F3 cells with reported HER2 oncogenic mutants in the HER2YF construct.
For HER2YF/3EG Ba/F3 cells were selected according to the protocol for the HER2YF/3TM Ba/F3's with the exception that no NRG was supplemented in the media during IL-3 independent selection.
Proliferation Assays. For adherent cell lines, cells were plated onto opaque white 96 well plates (Greiner cat #655083) and allowed to adhere overnight. The following day media was changed to fresh media that contained either DMSO or the indicated concentration of drug plus NRG (50 ng/mL final concentration) as indicated. Plates were incubated at 37° C. for 72 h and proliferation was read out using Cell Titer Glo (Promega) according to the manufacturer's protocol. For Ba/F3 cell proliferation, cells, drug dilution, and any necessary growth factors (10 ng/mL IL-3 or 6.25 ng/mL NRG) were combined in a well of a 96 well plate. Plates were incubated at 37° C. for 48 h and proliferation was read out using Cell Titer Glo according to the manufacturer's protocol. For all normalized assays, proliferation was normalized to the DMSO control condition. All graphs were plotted in GraphPad Prism 6 and fit with a non-linear regression of the log(inhibitor) vs response with a variable slope where shown. All graphs are averages (+/−standard deviation) of biological triplicates each performed in technical triplicate unless otherwise noted. If only one biological replicate was performed standard deviations were derived from the technical replicates.

[3] = target: T1, 2YF-YVMA/3wt + NRG Ba/F3 cells (Homo sapiens, UniProt P04626, DUP772-775/Y1005F/Y1023F/Y1112F/Y1127F/Y1139F/Y1196F/Y1221F/Y1222F/Y1248F, cells depend on it); assay: Ba/F3 proliferation assay, 2YF-YVMA/3wt + NRG; type: cell-based
T1 construct: reported HER2 oncogenic mutants in the HER2YF construct
T1 sequence (P04626 with tags, fused parts or gaps with the stated changes): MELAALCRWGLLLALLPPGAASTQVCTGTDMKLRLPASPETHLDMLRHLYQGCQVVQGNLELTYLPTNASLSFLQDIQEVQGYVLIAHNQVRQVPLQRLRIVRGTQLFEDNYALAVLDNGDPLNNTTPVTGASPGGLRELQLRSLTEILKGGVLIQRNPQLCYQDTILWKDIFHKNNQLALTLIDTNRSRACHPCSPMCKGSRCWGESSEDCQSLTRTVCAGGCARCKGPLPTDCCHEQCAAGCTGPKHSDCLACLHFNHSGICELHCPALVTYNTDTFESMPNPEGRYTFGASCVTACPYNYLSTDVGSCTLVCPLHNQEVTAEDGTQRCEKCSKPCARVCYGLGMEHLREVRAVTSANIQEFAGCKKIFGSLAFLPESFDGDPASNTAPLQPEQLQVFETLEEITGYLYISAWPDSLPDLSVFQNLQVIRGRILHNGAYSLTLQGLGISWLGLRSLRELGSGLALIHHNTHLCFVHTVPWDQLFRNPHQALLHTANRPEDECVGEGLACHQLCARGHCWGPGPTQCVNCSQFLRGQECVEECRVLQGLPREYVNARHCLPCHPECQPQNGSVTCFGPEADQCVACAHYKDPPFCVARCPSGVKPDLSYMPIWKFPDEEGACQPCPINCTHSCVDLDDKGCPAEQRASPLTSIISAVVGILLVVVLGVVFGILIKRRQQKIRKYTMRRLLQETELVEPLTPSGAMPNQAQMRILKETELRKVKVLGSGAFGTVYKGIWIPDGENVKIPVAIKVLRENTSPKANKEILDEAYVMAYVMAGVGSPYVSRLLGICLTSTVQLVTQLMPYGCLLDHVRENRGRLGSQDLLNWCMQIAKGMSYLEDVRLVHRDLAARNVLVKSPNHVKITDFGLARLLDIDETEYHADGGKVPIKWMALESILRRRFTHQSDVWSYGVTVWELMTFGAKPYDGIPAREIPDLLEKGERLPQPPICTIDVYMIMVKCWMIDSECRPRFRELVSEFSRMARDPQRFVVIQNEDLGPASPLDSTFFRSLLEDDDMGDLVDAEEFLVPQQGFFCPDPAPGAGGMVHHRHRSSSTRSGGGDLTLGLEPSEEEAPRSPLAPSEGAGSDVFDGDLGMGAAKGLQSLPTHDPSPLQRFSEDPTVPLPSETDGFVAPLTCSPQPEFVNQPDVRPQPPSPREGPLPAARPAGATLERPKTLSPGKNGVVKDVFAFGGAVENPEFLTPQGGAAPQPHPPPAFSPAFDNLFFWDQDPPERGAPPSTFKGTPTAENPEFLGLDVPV
Description: For the 2YF/3wt cells, the parental cells were first transduced with HER3 according to the protocol above and were then spun down at 500×g for 5 min and re-suspended in media supplemented with 10 ng/mL IL-3 and 3 μg/mL puromycin (Invitrogen). Cells were maintained in these conditions for seven days, passaging as required. After seven days the cells were spun down, washed with fresh media, and then used for a subsequent round of transduction according to the protocol above with HER2YF virus. […] The cells were maintained in these conditions for seven days, passaging as required. After seven days the cells were spun down, washed with fresh media, and then suspended in media supplemented with 10 ng/mL of NRG. Cells were maintained in these conditions for seven days to select for a NRG dependent population of 2YF/3wt Ba/F3 cells that were then maintained as described above. The same protocol was used for the 2YF-L755S/3wt, 2YF-YVMA/3wt, and 2YF-VC/3wt cell lines using the indicated constructs.
Proliferation Assays. […] The following day media was changed to fresh media that contained either DMSO or the indicated concentration of drug plus NRG (50 ng/mL final concentration) as indicated. […] For all normalized assays, proliferation was normalized to the DMSO control condition. […]

[4] = target: T2, IKK-BETA (Homo sapiens, UniProt O14920); assay: Nanosyn in vitro kinase profiling: IKK-BETA; type: biochemical; settings: for inhibition at 1 µM: compound at 1 μM
T2 sequence (O14920 1-756): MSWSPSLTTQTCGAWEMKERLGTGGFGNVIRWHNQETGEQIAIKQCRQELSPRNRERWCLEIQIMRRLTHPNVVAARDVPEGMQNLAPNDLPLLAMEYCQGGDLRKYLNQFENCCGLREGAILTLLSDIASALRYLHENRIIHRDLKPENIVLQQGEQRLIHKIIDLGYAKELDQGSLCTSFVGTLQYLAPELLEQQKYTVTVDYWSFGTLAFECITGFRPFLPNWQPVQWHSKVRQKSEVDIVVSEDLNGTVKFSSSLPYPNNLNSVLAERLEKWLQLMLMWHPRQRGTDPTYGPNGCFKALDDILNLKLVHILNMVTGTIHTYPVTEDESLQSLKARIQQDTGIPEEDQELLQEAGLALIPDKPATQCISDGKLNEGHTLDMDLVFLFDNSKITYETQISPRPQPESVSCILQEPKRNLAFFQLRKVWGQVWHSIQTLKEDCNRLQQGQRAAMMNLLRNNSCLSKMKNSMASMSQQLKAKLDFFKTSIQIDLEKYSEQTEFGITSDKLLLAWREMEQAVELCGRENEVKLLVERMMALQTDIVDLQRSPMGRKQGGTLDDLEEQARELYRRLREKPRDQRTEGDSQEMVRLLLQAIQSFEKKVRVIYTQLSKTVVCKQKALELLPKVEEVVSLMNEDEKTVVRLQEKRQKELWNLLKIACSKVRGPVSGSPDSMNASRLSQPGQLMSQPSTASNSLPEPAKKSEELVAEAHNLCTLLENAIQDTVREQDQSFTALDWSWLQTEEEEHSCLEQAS
Description: as §1, §2

[5] = target: SRC (Homo sapiens, UniProt P12931); assay: Nanosyn in vitro kinase profiling: SRC; type: biochemical; settings: for inhibition at 1 µM: compound at 1 μM
SRC, sequence (P12931 whole entry): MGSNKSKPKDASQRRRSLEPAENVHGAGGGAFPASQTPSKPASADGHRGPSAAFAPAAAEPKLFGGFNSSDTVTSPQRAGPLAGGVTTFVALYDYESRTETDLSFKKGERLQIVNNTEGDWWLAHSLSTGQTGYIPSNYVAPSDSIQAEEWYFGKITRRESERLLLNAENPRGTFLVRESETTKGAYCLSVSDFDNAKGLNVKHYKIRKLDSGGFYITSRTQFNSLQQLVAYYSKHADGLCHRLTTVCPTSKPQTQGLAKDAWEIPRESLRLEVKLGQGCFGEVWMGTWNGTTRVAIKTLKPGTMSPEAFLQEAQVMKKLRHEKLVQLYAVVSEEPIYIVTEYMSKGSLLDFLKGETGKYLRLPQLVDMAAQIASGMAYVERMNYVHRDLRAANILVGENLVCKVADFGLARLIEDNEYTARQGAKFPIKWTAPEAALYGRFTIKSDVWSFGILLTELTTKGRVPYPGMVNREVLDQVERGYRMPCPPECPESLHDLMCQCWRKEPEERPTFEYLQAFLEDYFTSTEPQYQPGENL
Description: as §1, §2

[6] = target: CDK2 (Homo sapiens, UniProt P24941); assay: Nanosyn in vitro kinase profiling: CDK2; type: biochemical; settings: for inhibition at 1 µM: compound at 1 μM
Description: as §1, §2

PIM-1-KINASE, sequence (P11309 whole entry): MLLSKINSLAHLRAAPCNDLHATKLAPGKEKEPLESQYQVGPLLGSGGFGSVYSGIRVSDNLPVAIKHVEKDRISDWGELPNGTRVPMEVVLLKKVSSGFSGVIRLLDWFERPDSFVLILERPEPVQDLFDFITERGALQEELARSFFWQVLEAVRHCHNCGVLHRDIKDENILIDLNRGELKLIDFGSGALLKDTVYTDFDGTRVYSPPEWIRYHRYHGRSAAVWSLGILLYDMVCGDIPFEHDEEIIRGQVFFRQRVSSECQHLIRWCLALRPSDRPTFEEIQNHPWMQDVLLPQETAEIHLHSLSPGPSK

| inhibition at 1 µM [1] | GI50 ([3]; Table 4; ± S.D., n = 2; read-out: IC50, 2YF-YVMA/3wt + NRG) | inhibition at 1 µM [4] | inhibition at 1 µM [5] | inhibition at 1 µM [6] | inhibition at 0.1 µM ([1]; compound at 100 nM) | inhibition at 0.1 µM ([4]; compound at 100 nM) | inhibition at 0.1 µM ([5]; compound at 100 nM) | inhibition at 0.1 µM ([6]; compound at 100 nM) | Compound | reduction of sensitivity on addition of NRG [2] | GI50 ([3]; read-out: IC50, 2YF-YVMA/3wt + NRG; Table 4; ± S.D., n = 2) |
| --- | --- | --- | --- | --- | --- | --- | --- | --- | --- | --- | --- |
| 7% | 11.4 ± 0.1 nM | 8% | 95% | 10% |  |  |  |  | COc1ccc(-c2ccoc2)cc1Nc1ncnc2[nH]cc(-c3cc[nH]n3)c12 [compound 3, N-(5-(furan-3-yl)-2-methoxyphenyl)-5-(1H-pyrazol-3-yl)-7H-pyrrolo[2,3-d]pyrimidin-4-amine] | less than 5 fold |  |
| 8.71% |  | 2.91% | 88.9% | 17.6% | 4.08% | 1.92% | 63.2% | 4.14% | COc1ccc(-c2ccco2)cc1Nc1ncnc2[nH]nc(-c3ccco3)c12 [compound 2, 3-(furan-2-yl)-N-(5-(furan-2-yl)-2-methoxyphenyl)-1H-pyrazolo[3,4-d]pyrimidin-4-amine] |  |  |
|  |  |  |  |  |  |  |  |  | CS(=O)(=O)CCNCc1ccc(-c2ccc3ncnc(Nc4ccc(OCc5cccc(F)c5)c(Cl)c4)c3c2)o1 [lapatinib] | 55 fold | > 10000 nM |
